Measurements: the NIST ThermoML archive (doi:10.1016/j.jct.2015.08.033)
Numbers after ± are expanded uncertainties.

Assay: mn = molality of the nth substance listed, in mol/kg
Settings: 100 kPa, Liquid; for speed of sound: Frequency=3 MHz, Sing-around technique in a fixed-path interferometer; for mass density: Vibrating tube method

[Ba+2].[O-][Cl+3]([O-])([O-])[O-].[O-][Cl+3]([O-])([O-])[O-] [barium perchlorate] + CC(=O)N(C)C
Settings	mass density, 298.15 K [kg/m3]	mass density, 303.15 K [kg/m3]	mass density, 308.15 K [kg/m3]	mass density, 313.15 K [kg/m3]	mass density, 318.15 K [kg/m3]	speed of sound, 298.15 K [m/s]	speed of sound, 303.15 K [m/s]	speed of sound, 308.15 K [m/s]	speed of sound, 313.15 K [m/s]	speed of sound, 318.15 K [m/s]
m1 = 0.01314	939.723 ± 0.54	935.116 ± 0.54	930.504 ± 0.54	925.882 ± 0.54	921.254 ± 0.55	1457.2 ± 1.3	1437.5 ± 1.3	1417.7 ± 1.3	1398.1 ± 1.3	1378.6 ± 1.3
m1 = 0.02301	942.289 ± 0.54	937.692 ± 0.54	933.085 ± 0.54	928.469 ± 0.54	923.849 ± 0.54	1458 ± 1.3	1438.3 ± 1.3	1418.6 ± 1.3	1399.1 ± 1.3	1379.6 ± 1.3
m1 = 0.03274	944.807 ± 0.53	940.214 ± 0.53	935.612 ± 0.53	931.002 ± 0.54	926.384 ± 0.54	1458.8 ± 1.3	1439.2 ± 1.3	1419.5 ± 1.3	1400 ± 1.3	1380.6 ± 1.3
m1 = 0.04665	948.382 ± 0.53	943.793 ± 0.53	939.196 ± 0.53	934.591 ± 0.53	929.98 ± 0.53	1459.9 ± 1.3	1440.4 ± 1.3	1420.8 ± 1.3	1401.4 ± 1.3	1382 ± 1.3
m1 = 0.06587	953.282 ± 0.53	948.701 ± 0.53	944.112 ± 0.53	939.515 ± 0.53	934.912 ± 0.53	1461.4 ± 1.3	1441.9 ± 1.3	1422.5 ± 1.3	1403.1 ± 1.3	1383.8 ± 1.3
m1 = 0.08329	957.7 ± 0.52	953.122 ± 0.52	948.539 ± 0.53	943.99 ± 0.53	939.4 ± 0.53	1462.7 ± 1.3	1443.3 ± 1.3	1423.9 ± 1.3	1405 ± 1.3	1385.8 ± 1.3
m1 = 0.1042	963.001 ± 0.52	958.419 ± 0.52	953.839 ± 0.52	949.253 ± 0.52	944.664 ± 0.52	1464.5 ± 1.3	1445 ± 1.3	1425.7 ± 1.3	1406.5 ± 1.3	1387.4 ± 1.3
m1 = 0.1312	969.764 ± 0.52	965.202 ± 0.52	960.631 ± 0.52	956.055 ± 0.52	951.474 ± 0.52	1466.2 ± 1.3	1447 ± 1.3	1427.8 ± 1.3	1408.8 ± 1.3	1389.8 ± 1.3
m1 = 0.1609	977.195 ± 0.51	972.637 ± 0.51	968.076 ± 0.51	963.509 ± 0.51	958.937 ± 0.51	1468.4 ± 1.3	1449.3 ± 1.3	1430.3 ± 1.3	1411.3 ± 1.3	1392.5 ± 1.3
m1 = 0.1965	985.908 ± 0.51	981.362 ± 0.51	976.808 ± 0.51	972.249 ± 0.51	967.689 ± 0.51	1470.8 ± 1.3	1451.9 ± 1.3	1432.9 ± 1.3	1414.1 ± 1.3	1395.4 ± 1.3

[Ba+2].[O-][Cl+3]([O-])([O-])[O-].[O-][Cl+3]([O-])([O-])[O-] [barium perchlorate] + CN(C)C=O
Settings	mass density, 298.15 K [kg/m3]	mass density, 303.15 K [kg/m3]	mass density, 308.15 K [kg/m3]	mass density, 313.15 K [kg/m3]	mass density, 318.15 K [kg/m3]	speed of sound, 298.15 K [m/s]	speed of sound, 303.15 K [m/s]	speed of sound, 308.15 K [m/s]	speed of sound, 313.15 K [m/s]	speed of sound, 318.15 K [m/s]
m1 = 0.01339	947.432 ± 0.54	942.667 ± 0.54	937.889 ± 0.54	933.096 ± 0.54	928.287 ± 0.55	1458.1 ± 1.3	1438.9 ± 1.3	1419.6 ± 1.3	1400.4 ± 1.3	1381.3 ± 1.3
m1 = 0.02254	949.821 ± 0.54	945.058 ± 0.54	940.281 ± 0.54	935.489 ± 0.54	930.686 ± 0.54	1458.7 ± 1.3	1439.5 ± 1.3	1420.2 ± 1.3	1401.1 ± 1.3	1381.9 ± 1.3
m1 = 0.0331	952.562 ± 0.53	947.81 ± 0.54	943.03 ± 0.54	938.243 ± 0.54	933.442 ± 0.54	1459.5 ± 1.3	1440.2 ± 1.3	1420.9 ± 1.3	1401.8 ± 1.3	1382.7 ± 1.3
m1 = 0.04712	956.179 ± 0.53	951.422 ± 0.53	946.652 ± 0.53	941.866 ± 0.53	937.07 ± 0.53	1459.9 ± 1.3	1440.9 ± 1.3	1421.7 ± 1.3	1402.7 ± 1.3	1383.7 ± 1.3
m1 = 0.06582	960.992 ± 0.53	956.235 ± 0.53	951.468 ± 0.53	946.686 ± 0.53	941.893 ± 0.53	1460.9 ± 1.3	1441.9 ± 1.3	1422.8 ± 1.3	1403.8 ± 1.3	1384.9 ± 1.3
m1 = 0.08395	965.617 ± 0.53	960.865 ± 0.53	956.099 ± 0.53	951.321 ± 0.53	946.53 ± 0.53	1461.8 ± 1.3	1442.8 ± 1.3	1423.8 ± 1.3	1405 ± 1.3	1386.1 ± 1.3
m1 = 0.1061	971.226 ± 0.52	966.477 ± 0.52	961.715 ± 0.52	956.94 ± 0.52	952.153 ± 0.53	1462.8 ± 1.3	1444 ± 1.3	1425.1 ± 1.3	1406.3 ± 1.3	1387.5 ± 1.3
m1 = 0.1322	977.835 ± 0.52	973.089 ± 0.52	968.33 ± 0.52	963.559 ± 0.52	958.776 ± 0.52	1464.1 ± 1.3	1445.4 ± 1.3	1426.6 ± 1.3	1407.8 ± 1.3	1389.2 ± 1.3
m1 = 0.1588	984.508 ± 0.52	979.766 ± 0.52	975.008 ± 0.52	970.24 ± 0.52	965.461 ± 0.52	1465.4 ± 1.3	1446.8 ± 1.3	1428 ± 1.3	1409.4 ± 1.3	1390.8 ± 1.3
m1 = 0.1995	994.63 ± 0.51	989.888 ± 0.51	985.134 ± 0.51	980.371 ± 0.51	975.596 ± 0.52	1467.4 ± 1.3	1448.9 ± 1.3	1430.3 ± 1.3	1411.8 ± 1.3	1393.3 ± 1.3

O=S(=O)([O-])C(F)(F)F.O=S(=O)([O-])C(F)(F)F.[Ca+2] [calcium trifluoromethanesulfonate] + CC(=O)N(C)C
Settings	mass density, 298.15 K [kg/m3]	mass density, 303.15 K [kg/m3]	mass density, 308.15 K [kg/m3]	mass density, 313.15 K [kg/m3]	mass density, 318.15 K [kg/m3]	speed of sound, 298.15 K [m/s]	speed of sound, 303.15 K [m/s]	speed of sound, 308.15 K [m/s]	speed of sound, 313.15 K [m/s]	speed of sound, 318.15 K [m/s]
m1 = 0.02187	940.927 ± 0.44	936.332 ± 0.45	931.736 ± 0.45	927.121 ± 0.45	922.5 ± 0.5	1457 ± 1.3	1437.3 ± 1.3	1417.6 ± 1.3	1398 ± 1.3	1378.6 ± 1.3
m1 = 0.03271	943.201 ± 0.44	938.61 ± 0.44	934.019 ± 0.44	929.41 ± 0.44	924.794 ± 0.44	1457.4 ± 1.3	1437.8 ± 1.3	1418.2 ± 1.3	1398.7 ± 1.3	1379.3 ± 1.3
m1 = 0.04637	946.038 ± 0.43	941.451 ± 0.43	936.856 ± 0.43	932.246 ± 0.43	927.636 ± 0.44	1458 ± 1.3	1438.5 ± 1.3	1419 ± 1.3	1399.4 ± 1.3	1380 ± 1.3
m1 = 0.06551	949.951 ± 0.43	945.373 ± 0.43	940.788 ± 0.43	936.196 ± 0.43	931.596 ± 0.43	1458.5 ± 1.3	1439 ± 1.3	1419.5 ± 1.3	1400.2 ± 1.3	1380.9 ± 1.3
m1 = 0.08271	953.447 ± 0.42	948.878 ± 0.43	944.3 ± 0.43	939.716 ± 0.43	935.124 ± 0.43	1459 ± 1.3	1439.6 ± 1.3	1420.2 ± 1.3	1400.9 ± 1.3	1381.7 ± 1.3
m1 = 0.1052	957.976 ± 0.42	953.415 ± 0.42	948.847 ± 0.42	944.27 ± 0.42	939.688 ± 0.42	1459.6 ± 1.3	1440.3 ± 1.3	1421 ± 1.3	1401.8 ± 1.3	1382.7 ± 1.3
m1 = 0.1305	963.026 ± 0.42	958.471 ± 0.42	953.91 ± 0.42	949.342 ± 0.42	944.771 ± 0.42	1460.3 ± 1.3	1441 ± 1.3	1421.8 ± 1.3	1402.7 ± 1.3	1383.7 ± 1.3
m1 = 0.1577	968.401 ± 0.41	963.856 ± 0.41	959.304 ± 0.41	954.745 ± 0.41	950.183 ± 0.42	1460.9 ± 1.3	1441.8 ± 1.3	1422.7 ± 1.3	1403.7 ± 1.3	1384.8 ± 1.3
m1 = 0.1977	976.212 ± 0.41	971.679 ± 0.41	967.14 ± 0.41	962.594 ± 0.41	958.045 ± 0.41	1461.8 ± 1.3	1442.8 ± 1.3	1423.9 ± 1.3	1405 ± 1.3	1386.2 ± 1.3
